According to PMC8180025, “Antibacterial, antifungal and antioxidant activities of whole plant chemical constituents of Rumex abyssinicus” (BMC Complementary Medicine and Therapies, 2021):
Converted amounts (≈) assume the structure as drawn. “And” between values parts separate entries of the source, which are not always exact repeats. Identical values can stand only once. Marks after values point to notes of the source that are not given here.

Key:
[1] = test system: MRSA03; experiment: Checkerboard combination with antibiotic (FIC); format: cell-based, Staphylococcus aureus; details: combined with ciprofloxacin
[2] = test system: C. neoformans; experiment: Checkerboard combination with antibiotic (FIC); format: cell-based, Cryptococcus neoformans; details: combined with fluconazole, checkerboard
[3] = Gallic acid equivalent antioxidant capacity (GEAC) assay; format: biochemical; details: laccase/ABTS, 420 nm after 240 s; mean ± SD
Description: The GEAC test was done as previously described with slight modifications. In a quartz cuvette, to 950 μL acetate buffer (pH =5.0, 100 mM), the following were added: 20 μL laccase (1 mM stock solution), 20 μL test sample, 10 μL ABTS (2,2′-azinobis(3-ethylbenzothiazoline-6-sulfonic acid) (74 mM stock solution). The purification of laccase from Sclerotinia sclerotiorum was done according to the protocol described. The sample concentrations in the assay mixture were 800, 400, 200, 100, 10 μg/mL for the extracts and 200, 100, 50, 25, 12.5, 6.25, 3.125, 1.56 μg/mL for the isolated compounds. The content of the generated ABTS^●+ radical was measured at 420 nm after 240 s reaction time and was converted to gallic acid equivalents by the use of a calibration curve (Pearson’s correlation coefficient: r = 0.997) constructed with 0, 4, 10, 14, 28, 56, 84 μM gallic acid standards rather than Trolox. Experiments were done in triplicate.

[4] = test system: methicillin resistant S. aureus MRSA03; experiment: Broth microdilution MIC/MMC
[5] = test system: S. flexneri; experiment: Checkerboard combination with antibiotic (FIC); format: cell-based, Shigella flexneri; details: combined with ciprofloxacin
Description: (§1) The inoculum was initially prepared as described above. The test microorganisms were inoculated into a 96-well microtitre plates and a serial dilution of two antimicrobial agents: antibiotic and MeOH extract, compound 2 or 4. Each well consisted of unique combination of test sample and antibiotic concentrations. The plates were then incubated for 24 h at 37 °C. The analyses were performed in triplicates. And the antimicrobial agents interactions were evaluated by calculating the fractional inhibitory concentration (FIC) indices. The FIC is defined as follows: MIC of antibiotic tested in combination/MIC of antibiotic tested alone + MIC of extract/compound tested in combination/MIC of extract/compound tested alone. The FIC index is interpreted as FIC ≤ 0.5: synergistic effect, 0.5 < FIC ≤1: additive effect, 1 < FIC ≤2: indifferent effect, and FIC > 2.0: antagonistic effect.

[6] = test system: P. aeruginosa; experiment: Checkerboard combination with antibiotic (FIC); format: cell-based, Pseudomonas aeruginosa; details: combined with ciprofloxacin
[7] = test system: Candida albicans ATCC10231; experiment: Broth microdilution MIC/MMC
[8] = test system: Shigella flexneri SDINT; experiment: Broth microdilution MIC/MMC
[9] = test system: MSSA01; experiment: Checkerboard combination with antibiotic (FIC); format: cell-based, Staphylococcus aureus; details: combined with ciprofloxacin
[10] = test system: Pseudomonas aeruginosa ATCC27853; experiment: Broth microdilution MIC/MMC
[11] = test system: Staphylococcus aureus ATCC25923; experiment: Broth microdilution MIC/MMC
[12] = test system: bacterial and yeast species; experiment: Checkerboard combination with antibiotics, whole panel; format: cell-based; details: overall statement over the microorganisms tested
Description: as §1

[13] = test system: methicillin sensitive S. aureus MSSA01; experiment: Broth microdilution MIC/MMC
[14] = DPPH free radical scavenging assay; format: biochemical; details: mean ± SD, triplicate
Description: The free radical scavenging activity of extracts and compounds was evaluated according to described methods. The EC50 (μg/ml), which is the amount of sample necessary to inhibit by 50% the absorbance of free radical DPPH was calculated. Vitamin C was used as a standard control. All the analyses were carried out in triplicate.

[15] = test system: Cryptococcus neoformans H99; experiment: Broth microdilution MIC/MMC
[16] = test system: S. aureus; experiment: Checkerboard combination with antibiotic (FIC); format: cell-based, Staphylococcus aureus; details: combined with ciprofloxacin
[17] = test system: C. albicans; experiment: Checkerboard combination with antibiotic (FIC); format: cell-based, Candida albicans; details: combined with fluconazole, checkerboard

With `Cc1cc(O)c2c(c1)C(=O)c1cc(O)cc(O)c1C2=O` [Compound 4, Emodin] the “FIC (fractional inhibitory concentration index)” value [1] was 0.375, the “FICEx / FIC2 / FIC5 (MIC of extract/compound tested in combination/MIC of extract/compound tested alone)” value [1] was 0.125 and the “FICA (MIC of antibiotic tested in combination/MIC of antibiotic tested alone)” value ([1]; 24 h at 37 °C) was 0.25. For the same molecule, the “FIC (fractional inhibitory concentration index)” value [2] was 0.75, the “FICEx / FIC2 / FIC5 (MIC of extract/compound tested in combination/MIC of extract/compound tested alone)” value [2] was 0.5 and the “FICA (MIC of antibiotic tested in combination/MIC of antibiotic tested alone)” value ([2]; 24 h at 37 °C) was 0.25. The “Gallic acid equivalent antioxidant capacity (GEAC)” value [3] was 79.54 ± 1.26 μg/mL and 79.54 ± 1.26^e μg/mL, the MMC/MIC ([4]; MRSA03) was 1 and the MMC ([4]; MRSA03, sub-culturing after broth microdilution) was 32 µg/mL. For the same molecule, the MIC ([4]; Staphylococcus aureus) was 32 µg/mL (≈ 118 µM), the “Interpretation (of FIC index)” value [5] was “Synergistic (FIC ≤ 0.5: synergistic effect)” and the “FIC (fractional inhibitory concentration index)” value ([5]; checkerboard) was 0.31. The “FICEx / FIC2 / FIC5 (MIC of extract/compound tested in combination/MIC of extract/compound tested alone)” value ([5]; checkerboard) was 0.25, the “FICA (MIC of antibiotic tested in combination/MIC of antibiotic tested alone)” value ([5]; checkerboard, 24 h at 37 °C) was 0.0625 and the “Interpretation (of FIC index)” value [6] was “Synergistic (FIC ≤ 0.5: synergistic effect)”. The “FICEx / FIC2 / FIC5 (MIC of extract/compound tested in combination/MIC of extract/compound tested alone)” value ([6]; checkerboard) was 0.125, the MMC/MIC ([7]; C. albicans) was 1 and the MMC ([7]; C. albicans, sub-culturing after broth microdilution) was 8 µg/mL. It also gave an MIC ([7]; Candida albicans, ATCC10231) of 8 µg/mL (≈ 29.6 µM), an MMC/MIC ([8]; S. flexneri) of 2 and an MMC ([8]; S. flexneri, sub-culturing after broth microdilution) of 16 µg/mL. The MIC ([8]; Shigella flexneri) was 8 µg/mL (≈ 29.6 µM), the “FIC (fractional inhibitory concentration index)” value [9] was 0.5 and the “FICEx / FIC2 / FIC5 (MIC of extract/compound tested in combination/MIC of extract/compound tested alone)” value [9] was 0.25. For the same molecule, the “FICA (MIC of antibiotic tested in combination/MIC of antibiotic tested alone)” value ([9]; 24 h at 37 °C) was 0.25, the MMC/MIC ([10]; P. aeruginosa) was 1 and the MMC ([10]; P. aeruginosa, sub-culturing after broth microdilution) was 16 µg/mL. It also gave an MIC ([10]; Pseudomonas aeruginosa, ATCC27853) of 16 µg/mL (≈ 59.2 µM), an MMC/MIC ([11]; S. aureus) of 1 and an MMC ([11]; S. aureus, sub-culturing after broth microdilution) of 8 µg/mL. For the same molecule, the MIC ([11]; Staphylococcus aureus, ATCC25923) was 8 µg/mL (≈ 29.6 µM), the “effect of the association with ciprofloxacin (bacteria) / fluconazole (yeasts)” value [12] was “synergistic” and the MMC/MIC ([13]; MSSA01) was 1. The MMC ([13]; MSSA01, sub-culturing after broth microdilution) was 32 µg/mL, the MIC ([13]; Staphylococcus aureus) was 32 µg/mL (≈ 118 µM) and the “DPPH free radical scavenging activity (EC50)” value [14] was 10.69 ± 0.51^f μg/mL. For the same molecule, the MMC/MIC ([15]; C. neoformans) was 1, the MMC ([15]; C. neoformans, sub-culturing after broth microdilution) was 8 µg/mL and the MIC ([15]; Cryptococcus neoformans, H99) was 8 µg/mL (≈ 29.6 µM). The “Interpretation (of FIC index)” value [16] was “Additive (0.5 < FIC ≤1: additive effect)”, the “FIC (fractional inhibitory concentration index)” value ([16]; checkerboard) was 0.625 and the “FICEx / FIC2 / FIC5 (MIC of extract/compound tested in combination/MIC of extract/compound tested alone)” value ([16]; checkerboard) was 0.125. For the same molecule, the “FICA (MIC of antibiotic tested in combination/MIC of antibiotic tested alone)” value ([16]; checkerboard, 24 h at 37 °C) was 0.5, the “FIC (fractional inhibitory concentration index)” value [17] was 0.75 and the “FICEx / FIC2 / FIC5 (MIC of extract/compound tested in combination/MIC of extract/compound tested alone)” value [17] was 0.5. For the same molecule, the “FICA (MIC of antibiotic tested in combination/MIC of antibiotic tested alone)” value ([17]; 24 h at 37 °C) was 0.25.
